Results from the supplement of paper PMC12350171.

Tests used:
Streptococcus salivarius = experiment: IC25 growth inhibition; higher = less potent
Summary of the method: (§1)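 Under anaerobic conditions, OD578 was read hourly in a plate reader for at least three biological replicates of monocultures grown overnight in mGAM. Each culture started at an OD578 of 0.01 in pre-reduced plates holding twofold drug dilutions and 1% DMSO (or water). IC25 was reported as a tested interval: the lowest concentration where the monotonic median area under the growth curve dropped below the cutoff. That cutoff was 0.75.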

[1] = tested on: Streptococcus parasanguinis; experiment: IC25 growth inhibition; higher = less potent
Summary of the method: as §1

Bacteroides uniformis = experiment: IC25 growth inhibition; higher = less potent
Summary of the method: as §1

Coprococcus comes = experiment: IC25 growth inhibition; higher = less potent
Summary of the method: as §1

[2] = tested on: Clostridium saccharolyticum; experiment: IC25 growth inhibition; higher = less potent
Summary of the method: as §1

Clostridium perfringens = experiment: IC25 growth inhibition; higher = less potent
Summary of the method: as §1

[3] = tested on: Yersinia enterocolitica WA-314; experiment: IC25 growth inhibition; higher = less potent
Summary of the method: as §1

Bacteroides vulgatus = experiment: IC25 growth inhibition; higher = less potent
Summary of the method: as §1

Ruminococcus gnavus = experiment: IC25 growth inhibition; higher = less potent
Summary of the method: as §1

Clostridium bolteae = experiment: IC25 growth inhibition; higher = less potent
Summary of the method: as §1

Clostridium ramosum = experiment: IC25 growth inhibition; higher = less potent
Summary of the method: as §1

Roseburia intestinalis = experiment: IC25 growth inhibition; higher = less potent
Summary of the method: as §1

[4] = tested on: Yersinia pseudotuberculosis; experiment: IC25 growth inhibition; higher = less potent
Summary of the method: as §1

Escherichia coli ED1a = experiment: IC25 growth inhibition; higher = less potent
Summary of the method: as §1

[5] = tested on: Fusobacterium nucleatum subsp. Nucleatum; experiment: IC25 growth inhibition; higher = less potent
Summary of the method: as §1

Parabacteroides merdae = experiment: IC25 growth inhibition; higher = less potent
Summary of the method: as §1

Eubacterium rectale = experiment: IC25 growth inhibition; higher = less potent
Summary of the method: as §1

Shigella flexneri = experiment: IC25 growth inhibition; higher = less potent
Summary of the method: as §1

Bacteroides fragilis NT = experiment: IC25 growth inhibition; higher = less potent
Summary of the method: as §1

[6] = tested on: Bacteroides thetaiotaomicron; experiment: IC25 growth inhibition; higher = less potent
Summary of the method: as §1

Dorea formicigenerans = experiment: IC25 growth inhibition; higher = less potent
Summary of the method: as §1

Collinsella aerofaciens = experiment: IC25 growth inhibition; higher = less potent
Summary of the method: as §1

[7] = tested on: Salmonella enterica typhimurium; experiment: IC25 growth inhibition; higher = less potent
Summary of the method: as §1

Vibrio cholerae = experiment: IC25 growth inhibition; higher = less potent
Summary of the method: as §1

[8] = tested on: Com21 synthetic gut community; experiment: community biomass OD578 after 24 h drug treatment relative to untreated (fraction of untreated control); higher = more community growth; details: community: Com21 (Com20 + E. coli ED1a)
Protocol: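 Com21 (Com20 plus E. coli ED1a) was treated with drug for 24 h under anaerobic conditions in mGAM. Community OD578 was then measured and normalised to untreated Com21; mean of 3 biological replicates.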

[9] = drug pretreatment concentration 10 µM
[10] = drug pretreatment concentration 20 µM
[11] = drug pretreatment concentration 40 µM
[12] = drug pretreatment concentration 80 µM
[13] = drug pretreatment concentration 160 µM
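For IC25 growth inhibition in this document: lowest concentration where monotonic median growth AUC falls below 0.75 of drug-free control.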

Row | SMILES | IC25 growth inhibition (Streptococcus salivarius) | IC25 growth inhibition [1] | IC25 growth inhibition (Bacteroides uniformis) | IC25 growth inhibition (Coprococcus comes) | IC25 growth inhibition [2] | IC25 growth inhibition (Clostridium perfringens) | IC25 growth inhibition [3] | IC25 growth inhibition (Bacteroides vulgatus) | IC25 growth inhibition (Ruminococcus gnavus) | IC25 growth inhibition (Clostridium bolteae) | IC25 growth inhibition (Clostridium ramosum) | IC25 growth inhibition (Roseburia intestinalis) | IC25 growth inhibition [4] | IC25 growth inhibition (Escherichia coli ED1a) | IC25 growth inhibition [5] | IC25 growth inhibition (Parabacteroides merdae) | IC25 growth inhibition (Eubacterium rectale) | IC25 growth inhibition (Shigella flexneri) | IC25 growth inhibition (Bacteroides fragilis NT) | IC25 growth inhibition [6] | IC25 growth inhibition (Dorea formicigenerans) | IC25 growth inhibition (Collinsella aerofaciens) | IC25 growth inhibition [7] | IC25 growth inhibition (Vibrio cholerae) | community biomass OD578 [8, 9] | community biomass OD578 [8, 10] | community biomass OD578 [8, 11] | community biomass OD578 [8, 12] | community biomass OD578 [8, 13] | community biomass OD578 ([8]; drug pretreatment concentration 2.5 µM) | community biomass OD578 ([8]; drug pretreatment concentration 5 µM)
1 | C[C@H]1O[C@H](O[C@H]2[C@H](O)[C@@H](O)[C@@H](O[C@H]3[C@H](O)[C@@H](O)C(O)O[C@@H]3CO)O[C@@H]2CO)[C@H](O)[C@@H](O)[C@@H]1N[C@H]1C=C(CO)[C@@H](O)[C@H](O)[C@H]1O (stereo partly drawn) [Acarbose] | > 160 µM | > 160 µM | > 160 µM | > 160 µM | > 160 µM | > 160 µM | > 160 µM | ≤ 40 µM | > 160 µM | > 160 µM | > 160 µM | ≤ 20 µM | > 160 µM | > 160 µM | > 160 µM | > 160 µM | ≤ 40 µM | > 160 µM | ≤ 10 µM | > 160 µM | > 160 µM | > 160 µM | > 160 µM | > 160 µM | 1.03 | 1.01 | 1 | 1 | 0.989 | – | –
2 | C[C@@H](O[C@H]1OCCN(Cc2n[nH]c(=O)[nH]2)[C@H]1c1ccc(F)cc1)c1cc(C(F)(F)F)cc(C(F)(F)F)c1 [Aprepitant] | > 160 µM | > 160 µM | > 160 µM | > 160 µM | > 160 µM | > 160 µM | > 160 µM | > 160 µM | > 160 µM | > 160 µM | > 160 µM | > 160 µM | > 80 µM | > 160 µM | > 160 µM | > 160 µM | > 160 µM | > 160 µM | > 160 µM | > 160 µM | > 160 µM | > 80 µM | > 160 µM | > 160 µM | 1 | 0.981 | 0.788 | 1.03 | 1.01 | – | –
3 | CCc1oc2ccccc2c1C(=O)c1cc(Br)c(O)c(Br)c1 [Benzbromarone] | ≤ 10 µM | ≤ 10 µM | ≤ 10 µM | ≤ 40 µM | ≤ 10 µM | ≤ 10 µM | > 160 µM | ≤ 20 µM | ≤ 20 µM | ≤ 40 µM | ≤ 20 µM | ≤ 40 µM | > 160 µM | > 160 µM | ≤ 80 µM | ≤ 20 µM | ≤ 20 µM | > 160 µM | ≤ 20 µM | ≤ 20 µM | ≤ 40 µM | ≤ 40 µM | > 160 µM | ≤ 160 µM | 0.877 | 0.86 | 0.812 | 0.687 | 0.301 | – | –
4 | CN(C)CCCN1c2ccccc2Sc2ccc(Cl)cc21 [Chlorpromazine] | ≤ 80 µM | ≤ 160 µM | ≤ 80 µM | ≤ 160 µM | ≤ 80 µM | ≤ 80 µM | > 160 µM | ≤ 40 µM | ≤ 40 µM | ≤ 160 µM | > 160 µM | ≤ 80 µM | ≤ 160 µM | ≤ 160 µM | ≤ 80 µM | ≤ 40 µM | ≤ 40 µM | ≤ 160 µM | ≤ 80 µM | ≤ 80 µM | ≤ 40 µM | ≤ 160 µM | > 160 µM | ≤ 160 µM | 1 | 0.983 | 0.941 | 0.927 | 0.813 | – | –
5 | CN(C)CC/C=C1/c2ccccc2Sc2ccc(Cl)cc21 [Chlorprothixene] | ≤ 160 µM | > 160 µM | ≤ 40 µM | ≤ 160 µM | ≤ 80 µM | ≤ 80 µM | > 160 µM | ≤ 40 µM | ≤ 160 µM | ≤ 160 µM | > 160 µM | ≤ 40 µM | ≤ 160 µM | > 160 µM | ≤ 80 µM | ≤ 160 µM | ≤ 80 µM | ≤ 160 µM | ≤ 80 µM | ≤ 40 µM | ≤ 40 µM | ≤ 160 µM | > 160 µM | ≤ 20 µM | 0.988 | 1.02 | 0.99 | 0.965 | 0.48 | – | –
6 | COCCOC(=O)C1=C(C)NC(C)=C(C(=O)OC/C=C/c2ccccc2)C1c1cccc([N+](=O)[O-])c1 (stereo not drawn) [Cilnidipine] | > 10 µM | > 20 µM | > 40 µM | > 10 µM | > 10 µM | > 20 µM | > 5 µM | > 10 µM | > 20 µM | > 10 µM | > 5 µM | > 10 µM | > 10 µM | > 40 µM | > 10 µM | > 20 µM | > 10 µM | > 10 µM | > 10 µM | > 10 µM | > 10 µM | > 10 µM | > 5 µM | > 10 µM | 1.06 | 1.03 | 0.993 | – | – | 1.03 | 1
7 | Clc1ccc(Cn2c(CN3CCCC3)nc3ccccc32)cc1 [Clemizole] | > 160 µM | > 160 µM | > 160 µM | ≤ 2.5 µM | ≤ 80 µM | ≤ 160 µM | > 160 µM | ≤ 160 µM | ≤ 10 µM | > 160 µM | ≤ 10 µM | ≤ 5 µM | > 160 µM | > 160 µM | ≤ 160 µM | ≤ 160 µM | ≤ 2.5 µM | > 160 µM | > 160 µM | ≤ 160 µM | ≤ 2.5 µM | ≤ 20 µM | > 160 µM | ≤ 80 µM | 1.01 | 1 | 1.03 | 1.02 | 0.964 | – | –
